Test results published in ChEMBL document CHEMBL4118097, “Selective Inhibitors of Dual Leucine Zipper Kinase (DLK, MAP3K12) with Activity in a Model of Alzheimer's Disease” (J Med Chem, 2017).

Columns and labels:
[1] = target: T1, Mitogen-activated protein kinase kinase kinase 12 (Homo sapiens, UniProt Q12852); experiment: Inhibition of doxycycline inducible human DLK transfected in HEK293 cells assessed as JNK phosphorylation after […] by Hoechst-33342 staining-based assay; type: cell-based
T1 sequence (Q12852 whole entry): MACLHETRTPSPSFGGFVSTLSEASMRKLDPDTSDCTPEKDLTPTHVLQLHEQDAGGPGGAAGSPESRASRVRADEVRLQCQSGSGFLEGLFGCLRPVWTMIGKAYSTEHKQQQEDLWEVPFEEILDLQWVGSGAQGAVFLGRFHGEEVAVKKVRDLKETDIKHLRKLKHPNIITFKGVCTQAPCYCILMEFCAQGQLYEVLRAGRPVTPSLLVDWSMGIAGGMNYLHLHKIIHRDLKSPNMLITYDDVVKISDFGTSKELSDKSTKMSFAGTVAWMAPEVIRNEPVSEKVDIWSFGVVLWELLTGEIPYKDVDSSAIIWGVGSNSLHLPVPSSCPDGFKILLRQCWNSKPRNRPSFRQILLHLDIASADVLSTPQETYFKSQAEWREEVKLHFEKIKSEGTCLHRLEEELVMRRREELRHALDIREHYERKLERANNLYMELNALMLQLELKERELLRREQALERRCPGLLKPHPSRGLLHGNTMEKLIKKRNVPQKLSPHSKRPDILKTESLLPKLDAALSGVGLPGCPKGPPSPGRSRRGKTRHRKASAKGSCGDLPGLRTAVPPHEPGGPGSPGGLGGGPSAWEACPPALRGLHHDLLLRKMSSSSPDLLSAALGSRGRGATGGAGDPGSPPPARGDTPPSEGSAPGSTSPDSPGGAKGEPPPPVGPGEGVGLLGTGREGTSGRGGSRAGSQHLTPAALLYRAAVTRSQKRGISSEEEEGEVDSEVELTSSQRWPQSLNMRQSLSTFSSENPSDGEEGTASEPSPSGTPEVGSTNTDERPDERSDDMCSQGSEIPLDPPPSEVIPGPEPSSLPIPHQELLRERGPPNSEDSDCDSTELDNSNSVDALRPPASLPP

[2] = target: T1, Mitogen-activated protein kinase kinase kinase 12; experiment: Binding affinity to N-terminally GST-tagged wild type human DLK (1 to 520 residues) expressed in sf21 insect cells using N-terminally His-tagged MKK4 K131M as substrate after 60 mins in presence of ATP by TR-FRET assay
[3] = system: MDR1 (P-gp), human; experiment: Efflux ratio of permeability from basolateral to apical side over apical to basolateral side in MDCK cells harboring human MDR1; type: ADME, cell-based, Canis lupus familiaris; settings: dog
[4] = system: MDR1 (P-gp), human; experiment: Permeability from apical side to basolateral side in MDCK1 cells harboring human MDR1; type: ADME, cell-based, Canis lupus familiaris; settings: dog, MDCK-MDR1; read-out: permeability

**Q.** `CC(C)n1nc(-c2cnc(N)c(OC(F)F)c2)cc1[C@H]1[C@@H]2CN(C3COC3)C[C@@H]21` was tested. Which IC50 [1] did it give?
**A.** Its IC50 is 328 nM.

**Q.** `CC(C)n1nc(-c2cnc(N)c(Cl)c2)cc1C1CCN(C2COC2)CC1` was tested. Which IC50 [1] did it give?
**A.** Its IC50 is 1700 nM.

**Q.** With `CC(C)n1nc(-c2cnc3[nH]cc(Cl)c3c2)cc1C1CCN(C2COC2)CC1` as the compound, how does the IC50 [1] read?
**A.** The IC50 was 574 nM.

**Q.** How did the IC50 [1] turn out when `CC(C)n1nc(-c2cnc3[nH]cc(C(F)(F)F)c3c2)cc1C1CCN(C2COC2)CC1` was run?
**A.** Its IC50 is 485 nM.

**Q.** How did the Ki [2] turn out when `Nc1ncc(-c2cc([C@H]3[C@@H]4CN(C5COC5)C[C@@H]43)n(CC3CC3)n2)cc1OC(F)(F)F` was run?
**A.** Its Ki is 3 nM.

**Q.** And the IC50 [1]?
**A.** Its IC50 is 304 nM.

**Q.** How did the IC50 [1] turn out when `CC(C)n1nc(-c2cnc3[nH]cc(F)c3c2)cc1C1CCN(C2COC2)CC1` was run?
**A.** The IC50 was 2800 nM.

**Q.** `CC(C)n1nc(-c2cnc(N)c(C(F)F)c2)cc1[C@H]1[C@@H]2CN(C3COC3)C[C@@H]21` was tested. Which IC50 [1] did it give?
**A.** The IC50 was 1200 nM.

**Q.** `COCCN1C[C@@H]2[C@H](C1)[C@H]2c1cc(-c2cnc(N)c(C(F)(F)F)c2)nn1C(C)C` was tested. Which Ki [2] did it give?
**A.** The Ki was 9 nM.

**Q.** And the IC50 [1]?
**A.** The IC50 was 265 nM.

**Q.** `CC(C)n1nc(-c2cnc(N)c(C(F)(F)F)c2)cc1C1CCN(C2COC2)CC1` was tested. Which IC50 [1] did it give?
**A.** Its IC50 is 1900 nM.

**Q.** With `Nc1ncc(-c2cc([C@H]3[C@@H]4CN(C5COC5)C[C@@H]43)n(CC3CCCC3)n2)cc1C(F)(F)F` as the compound, how does the Ki [2] read?
**A.** Its Ki is 9 nM.

**Q.** What about the IC50 [1] of the same compound?
**A.** The IC50 was 202 nM.

**Q.** `CC(C)n1nc(-c2cnc(N)c(C(F)(F)F)c2)cc1[C@H]1[C@@H]2CN(CC(F)F)C[C@@H]21` was tested. Which efflux ratio [3] did it give?
**A.** The efflux ratio was 0.3.

**Q.** What about the Papp A→B [4] of the same compound?
**A.** Its Papp A→B is 7.9 ×10⁻⁶ cm/s.

**Q.** What about the IC50 [1] of the same compound?
**A.** The IC50 was 611 nM.

**Q.** For `CCn1nc(-c2cnc(N)c(C(F)(F)F)c2)cc1[C@H]1[C@@H]2CN(C3COC3)C[C@@H]21`, which Ki [2] is on record?
**A.** Its Ki is 3 nM.

**Q.** And the IC50 [1]?
**A.** Its IC50 is 406 nM.

**Q.** How did the Ki [2] turn out when `Cc1c[nH]c2ncc(-c3cc(C4CCN(C5COC5)CC4)n(C(C)C)n3)cc12` was run?
**A.** The Ki was 4 nM.

**Q.** What about the IC50 [1] of the same compound?
**A.** The IC50 was 303 nM.

**Q.** Which results are given for `CC(=O)N1C[C@@H]2[C@H](C1)[C@H]2c1cc(-c2cnc(N)c(C(F)(F)F)c2)nn1C(C)C`?
**A.** Ki [2]: 6 nM; IC50 [1]: 302 nM

**Q.** Which Ki [2] does the source give for `Cn1nc(-c2cnc(N)c(C(F)(F)F)c2)cc1[C@H]1[C@@H]2CN(C3COC3)C[C@@H]21` here?
**A.** The Ki was 82 nM.

**Q.** What about the IC50 [1] of the same compound?
**A.** Its IC50 is 1800 nM.

**Q.** For `COc1cc(-c2cc([C@H]3[C@@H]4CN(C5COC5)C[C@@H]43)n(C(C)C)n2)cnc1N`, which Ki [2] is on record?
**A.** The Ki was 7 nM.

**Q.** What about the IC50 [1] of the same compound?
**A.** Its IC50 is 873 nM.

**Q.** What does the source list for `CC(C)(O)Cn1nc(-c2cnc(N)c(C(F)(F)F)c2)cc1[C@H]1[C@@H]2CN(C3COC3)C[C@@H]21`?
**A.** Ki [2]: 23 nM; IC50 [1]: 829 nM

**Q.** Which results are given for `CC(C)Cn1nc(-c2cnc(N)c(C(F)(F)F)c2)cc1[C@H]1[C@@H]2CN(C3COC3)C[C@@H]21`?
**A.** Ki [2]: 3 nM; IC50 [1]: 99 nM

**Q.** Which Ki [2] does the source give for `CC(O)CN1C[C@@H]2[C@H](C1)[C@H]2c1cc(-c2cnc(N)c(C(F)(F)F)c2)nn1C(C)C` (some centres undefined) here?
**A.** Its Ki is 4 nM.

**Q.** And the IC50 [1]?
**A.** Its IC50 is 208 nM.

**Q.** `Nc1ncc(-c2cc([C@H]3[C@@H]4CN(C5COC5)C[C@@H]43)n(CC(F)(F)F)n2)cc1C(F)(F)F` was tested. Which Ki [2] did it give?
**A.** Its Ki is 16 nM.

**Q.** And the IC50 [1]?
**A.** Its IC50 is 180 nM.

**Q.** What does the source list for `CC(C)n1nc(-c2cnc(N)c(C(F)(F)F)c2)cc1[C@H]1[C@@H]2CN(CC3COC3)C[C@@H]21`?
**A.** Ki [2]: 5 nM; IC50 [1]: 274 nM

**Q.** `Cn1nc(-c2cnc(N)c(OC(F)(F)F)c2)cc1[C@H]1[C@@H]2CN(C3COC3)C[C@@H]21` was tested. Which Ki [2] did it give?
**A.** The Ki was 67 nM.

**Q.** And the IC50 [1]?
**A.** Its IC50 is 1300 nM.

**Q.** With `Cc1cc(-c2cc(C3CCN(C4COC4)CC3)n(C(C)C)n2)cnc1N` as the compound, how does the Ki [2] read?
**A.** Its Ki is over 1600 nM.
